Results: US20260242416A1, “ANTIMICROBIAL PEPTIDES” (priority 2023, published 2026)
Read-outs that look alike come from different tables or passages of the source. Where a SMILES comes first, the peptide text is derived from it.

Legend:
E. coli ATCC 25922 = type: cell-based, Escherichia coli
Method: (§1) Bacteria were grown overnight at 37° C. in Mueller-Hinton Broth (MHB; Sigma-Aldrich, St. Louis. MO, USA) in a shaking incubator and aliquoted into cryovials with a 50% glycerol solution in a 1:1 ratio. No additives were added to the MHB during the growth of bacterial isolates. Glycerol stocks were stored at −80° C.
(§2) The antimicrobial activity of the putative AMPs was determined by a broth microdilution assay as described by the Clinical and Laboratory Standards Institute, with the published adaptations for testing of cationic peptides. Escherichia coli 25922 and Staphylococcus aureus 29213 isolates were purchased from the American Type Culture Collection (ATCC; Manassas, VA, USA). A human clinical isolate of Salmonella enterica serovar Enteritidis was provided by the BC Centre for Disease Control. Bacteria from stocks stored at −80° C. were streaked onto nonselective Columbia blood agar with 5% sheep blood (Oxoid) and incubated overnight at 37° C. Next, 2-4 colonies were streaked onto a new agar plate to ensure uniform health of colonies used in the broth microdilution assay. Isolated colonies were suspended in MHB and the optical density was measured with a spectrophotometer to create an initial inoculum concentration of approximately 1×10^8 cfu/mL. The inoculum was diluted 1:250 to a final concentration of 2-8×10^5 cfu/mL, which was confirmed by performing a Total Viability Count (TVC). The TVC consisted of plating a 1:1000 dilution of the final inoculum on nonselective media and was also used to confirm the health and purity of the inoculum in each trial.
(§3) Lyophilized 80 μg peptide aliquots synthesized by GenScript (Piscataway, NJ, USA) were resuspended to 1.28 mg/mL with UltraPure water (Thermo Fisher Scientific, Waltham, MA, USA) and serially diluted in polypropylene 96-well microtiter plates (Greiner Bio-One #650261, Kremsmunster, Austria) from 128 down to 0.5 μg/mL. Two columns per plate were reserved for growth and sterility controls. Inoculum was added to the wells containing the peptide and the growth control. Plates were incubated for 20-24 h at 37° C. The minimum inhibitory concentration (MIC) was determined as the lowest peptide concentration where there was no visible bacterial growth.

S. aureus ATCC 29213 = type: cell-based, Staphylococcus aureus
Method: as §1, §2, §3

[1] = tested on: Salmonella enterica serovar Enteritidis (human clinical isolate); type: cell-based
Method: as §1, §2, §3

[2] = serovar Enteritidis (human clinical isolate)
[3] = Table 14, first value of the cell, three independent experiments, highest concentration tested 128
[4] = Table 14, third value of the cell, three independent experiments, highest concentration tested 128
[5] = Table 14, second value of the cell, three independent experiments, highest concentration tested 128

CC(C)C[C@H](NC(=O)[C@H](CO)NC(=O)[C@H](C)NC(=O)[C@@H](NC(=O)[C@@H](N)CO)C(C)C)C(=O)N[C@@H](C)C(=O)N[C@@H](CCCCN)C(=O)N[C@@H](CC(N)=O)C(=O)N[C@@H](CO)C(=O)N[C@@H](C)C(=O)N[C@@H](Cc1c[nH]c2ccccc12)C(=O)N1CCC[C@H]1C(=O)N[C@H](C(=O)N[C@@H](CO)C(=O)N[C@@H](CC(C)C)C(=O)N[C@@H](CCCCN)C(=O)N[C@@H](CCCNC(=N)N)C(=O)O)C(C)C [BoAr4, SVASLAKNSAWPVSLKR] (H-SVASLAKNSAWPVSLKR-OH; N-terminus and C-terminus assumed)
>128/>128/>128 ug/mL: MIC (ug/mL) E. coli (E. coli ATCC 25922; ATCC 25922) | MIC (ug/mL) S. aureus (S. aureus ATCC 29213; ATCC 29213) | MIC (ug/mL) S. Enteritidis [1, 2]

CC[C@H](C)[C@H](NC(=O)[C@H](CO)NC(=O)[C@@H](NC(=O)[C@@H](NC(=O)[C@@H](N)C(C)C)[C@@H](C)O)[C@@H](C)CC)C(=O)N[C@@H](C)C(=O)N[C@@H](CCCNC(=N)N)C(=O)N[C@@H](CCCNC(=N)N)C(=O)N[C@H](C(=O)N[C@@H](CO)C(=O)N[C@@H](CO)C(=O)N[C@@H](Cc1c[nH]cn1)C(=O)N[C@@H](CCCCN)C(=O)N[C@@H](CCCNC(=N)N)C(=O)NCC(=O)O)C(C)C [BoAr5, VTISIARRVSSHKRG] (H-VTISIARRVSSHKRG-OH; N-terminus and C-terminus assumed)
>128/>128/>128 ug/mL: MIC (ug/mL) E. coli (E. coli ATCC 25922; ATCC 25922) | MIC (ug/mL) S. aureus (S. aureus ATCC 29213; ATCC 29213) | MIC (ug/mL) S. Enteritidis [1, 2]

CC[C@H](C)[C@H](NC(=O)[C@H](Cc1ccccc1)NC(=O)[C@H](CCCCN)NC(=O)[C@@H](NC(=O)[C@H](CCCCN)NC(=O)[C@@H](N)CC(N)=O)[C@@H](C)CC)C(=O)N[C@@H](CC(N)=O)C(=O)N[C@@H](CCCCN)C(=O)N[C@@H](Cc1ccc(O)cc1)C(=O)N[C@H](C(=O)N[C@@H](CCCCN)C(=O)N[C@@H](CCCCN)C(=O)N[C@H](C(=O)N[C@@H](CCC(N)=O)C(=O)N[C@@H](CC(C)C)C(=O)N[C@@H](CCCCN)C(=O)N[C@@H](CCCCN)C(=O)N[C@H](C(=O)N[C@@H](CC(C)C)C(=O)N[C@H](C(=O)N[C@@H](CCCCN)C(=O)N[C@@H](CO)C(=O)O)C(C)C)[C@@H](C)CC)C(C)C)C(C)C [BoCo1] (H-NKIKFINKYVKKVQLKKILVKS-OH; N-terminus and C-terminus assumed)
>128/>128/>128 ug/mL: MIC (ug/mL) E. coli (E. coli ATCC 25922; ATCC 25922) | MIC (ug/mL) S. aureus (S. aureus ATCC 29213; ATCC 29213) | MIC (ug/mL) S. Enteritidis [1, 2]

CC[C@H](C)[C@H](NC(=O)[C@H](Cc1c[nH]cn1)NC(=O)[C@H](Cc1c[nH]cn1)NC(=O)[C@H](Cc1c[nH]cn1)NC(=O)[C@@H](N)CCCCN)C(=O)N[C@@H](CCCCN)C(=O)N[C@@H](CC(C)C)C(=O)N[C@@H](CCCNC(=N)N)C(=O)N[C@@H](Cc1c[nH]cn1)C(=O)NCC(=O)N[C@@H](CCCNC(=N)N)C(=O)N[C@@H](Cc1c[nH]cn1)C(=O)N[C@@H](CCCNC(=N)N)C(=O)N[C@@H](CCCNC(=N)N)C(=O)N[C@@H](CO)C(=O)N[C@H](C(=O)N[C@@H](CC(C)C)C(=O)N[C@@H](CCCNC(=N)N)C(=O)N[C@H](C(=O)N[C@@H](CC(C)C)C(=O)N[C@H](C(=O)O)C(C)C)[C@@H](C)O)C(C)C [CaCa3] (H-KHHHIKLRHGRHRRSVLRTLV-OH; N-terminus and C-terminus assumed)
>128/>128/>128 ug/mL: MIC (ug/mL) E. coli (E. coli ATCC 25922; ATCC 25922) | MIC (ug/mL) S. aureus (S. aureus ATCC 29213; ATCC 29213) | MIC (ug/mL) S. Enteritidis [1, 2]

CC[C@H](C)[C@H](NC(=O)CN)C(=O)N[C@@H](Cc1ccccc1)C(=O)N[C@@H](CO)C(=O)N[C@@H](CC(C)C)C(=O)N[C@H](C(=O)N[C@@H](CCCCN)C(=O)NCC(=O)N[C@@H](C)C(=O)N[C@@H](C)C(=O)N[C@@H](CCCCN)C(=O)O)[C@@H](C)CC [LeBo1, GIFSLIKGAAK] (H-GIFSLIKGAAK-OH; N-terminus and C-terminus assumed)
>128/>128/>128 ug/mL: MIC (ug/mL) E. coli (E. coli ATCC 25922; [3]) | MIC (ug/mL) S. aureus (S. aureus ATCC 29213; [4]) | MIC (ug/mL) S. Enteritidis [1, 5]

CSCC[C@H](NC(=O)[C@@H](N)C(C)C)C(=O)N[C@@H](CC(C)C)C(=O)N1CCC[C@H]1C(=O)N[C@@H](CCCCN)C(=O)N[C@@H](Cc1ccccc1)C(=O)N[C@@H](CCCCN)C(=O)N[C@@H](CCCNC(=N)N)C(=O)O [MiDe1, VMLPKFKR] (H-VMLPKFKR-OH; N-terminus and C-terminus assumed)
>128/>128/>128 ug/mL: MIC (ug/mL) E. coli (E. coli ATCC 25922; ATCC 25922) | MIC (ug/mL) S. aureus (S. aureus ATCC 29213; ATCC 29213) | MIC (ug/mL) S. Enteritidis [1, 2]

CC[C@H](C)[C@H](NC(=O)[C@H](CC(=O)O)NC(=O)[C@H](CO)NC(=O)[C@H](CC(C)C)NC(=O)[C@@H]1CCCN1C(=O)[C@@H](N)[C@@H](C)O)C(=O)N[C@@H](Cc1ccccc1)C(=O)N[C@@H](CCCNC(=N)N)C(=O)NCC(=O)N[C@@H](CCC(N)=O)C(=O)N[C@@H](CC(C)C)C(=O)N[C@@H](CCCNC(=N)N)C(=O)N[C@@H](CO)C(=O)N[C@@H](CCCNC(=N)N)C(=O)N[C@H](C(=O)N[C@@H](CO)C(=O)N[C@@H](CCCNC(=N)N)C(=O)O)C(C)C [NaVi1, TPLSDIFRGQLRSRVSR] (H-TPLSDIFRGQLRSRVSR-OH; N-terminus and C-terminus assumed)
>128/>128/>128 ug/mL: MIC (ug/mL) E. coli (E. coli ATCC 25922; ATCC 25922) | MIC (ug/mL) S. aureus (S. aureus ATCC 29213; ATCC 29213) | MIC (ug/mL) S. Enteritidis [1, 2]

CC(C)C[C@H](NC(=O)CNC(=O)[C@H](CO)NC(=O)[C@H](CO)NC(=O)[C@H](CO)NC(=O)[C@H](CO)NC(=O)[C@H](CC(C)C)NC(=O)[C@@H]1CCCN1C(=O)[C@H](CO)NC(=O)[C@H](CC(C)C)NC(=O)[C@H](CO)NC(=O)[C@@H](N)CO)C(=O)NCC(=O)N[C@@H](CCCCN)C(=O)N[C@@H](CCCCN)C(=O)N[C@@H](CCCCN)C(=O)N[C@@H](CCCCN)C(=O)N[C@@H](CCCNC(=N)N)C(=O)N[C@@H](CCCCN)C(=O)N[C@@H](CO)C(=O)N[C@@H](CCCCN)C(=O)N[C@@H](CCCNC(=N)N)C(=O)N[C@@H](C)C(=O)N[C@@H](CO)C(=O)N[C@@H](CCCNC(=N)N)C(=O)O [NaVi2] (H-SSLSPLSSSSGLGKKKKRKSKRASR-OH; N-terminus and C-terminus assumed)
>128/>128/>128 ug/mL: MIC (ug/mL) E. coli (E. coli ATCC 25922; ATCC 25922) | MIC (ug/mL) S. aureus (S. aureus ATCC 29213; ATCC 29213) | MIC (ug/mL) S. Enteritidis [1, 2]

CC[C@H](C)[C@H](NC(=O)[C@H](CS)NC(=O)[C@H](CCCNC(=N)N)NC(=O)[C@H](CS)NC(=O)[C@H](CO)NC(=O)[C@H](CCCNC(=N)N)NC(=O)[C@H](CO)NC(=O)[C@H](CO)NC(=O)[C@H](CO)NC(=O)CN)C(=O)N[C@@H](CCCNC(=N)N)C(=O)N[C@@H](CC(C)C)C(=O)N[C@@H](CO)C(=O)N[C@@H](CCCNC(=N)N)C(=O)N[C@@H](CC(C)C)C(=O)N[C@@H](CO)C(=O)N[C@@H](CO)C(=O)N[C@@H](CCCCN)C(=O)N[C@@H](CCCNC(=N)N)C(=O)N[C@H](C(=O)O)[C@@H](C)O [NaVi4] (H-GSSSRSCRCIRLSRLSSKRT-OH; N-terminus and C-terminus assumed)
>128/>128/>128 ug/mL: MIC (ug/mL) E. coli (E. coli ATCC 25922; ATCC 25922) | MIC (ug/mL) S. aureus (S. aureus ATCC 29213; ATCC 29213) | MIC (ug/mL) S. Enteritidis [1, 2]

CC[C@H](C)[C@H](NC(=O)CNC(=O)[C@H](CO)NC(=O)[C@@H](NC(=O)[C@H](CC(C)C)NC(=O)CN)[C@@H](C)CC)C(=O)N[C@@H](CC(C)C)C(=O)NCC(=O)N[C@@H](C)C(=O)NCC(=O)N[C@@H](CCCCN)C(=O)N[C@@H](CCCCN)C(=O)O [OdMa8, GLISGILGAGKK] (H-GLISGILGAGKK-OH; N-terminus and C-terminus assumed)
>128/>128/>128 ug/mL: MIC (ug/mL) E. coli (E. coli ATCC 25922; [3]) | MIC (ug/mL) S. aureus (S. aureus ATCC 29213; [4]) | MIC (ug/mL) S. Enteritidis [1, 5]
